US5602100A, “Dermorphin analogs having pharmacological activity” (priority 1988, dated 1997)
Non-standard residues stand in square brackets, D forms with d. Residues, ends and D or L forms follow the SMILES beside them. dNle = CCCC[C@@H](N)C(=O)O; dDab = NCC[C@@H](N)C(=O)O; dNva = CCC[C@@H](N)C(=O)O; Orn = NCCC[C@H](N)C(=O)O; Dab = NCC[C@H](N)C(=O)O

Assays:
δ-opioid receptor = molecular target: T1, δ-opioid receptor (Rattus norvegicus, UniProt P33533); test: biochemical; type: binding
T1 construct: displacement of the radioligands from the rat brain membrane preparations; from tissue; host or cells: rat brain membrane preparations

μ-opioid receptor = molecular target: T2, μ-opioid receptor (Rattus norvegicus, UniProt P33535); test: biochemical; type: binding
T2 construct: displacement of the radioligands from the rat brain membrane preparations; from tissue; host or cells: rat brain membrane preparations

PBQ-induced writhing = test: Mouse writhing test (PBQ); type: in vivo; conditions: dose reducing the number of writhes by 50%
Protocol: The mouse writhing test detects both peripherally and centrally mediated analgesic effects. The test procedure is described in Siegmund et al., Proc. Soc. Exp. Biol. Med., 95, p. 729 (1957). In this test, a control group of albino mice was injected intraperitoneally with 0.3 ml/20 g body weight of a 0.02% solution of 2-phenyl-1,4-benzoquinone (PBQ). The writhing and contortional movements of the mice over the following 15 minutes were recorded. A second group of mice was given a dose of a synthetic dermorphin analog according to this invention, then allowed to wait a period of time before being administered the PBQ injection. The average number of writhes was then recorded and compared to the control group. The results of this test are expressed as the dosage of peptide that reduces the number of writhes by 50% at a given time interval (referred to as ED50).

hot plate stimulus = test: Mouse hot plate test; type: in vivo; conditions: dose 40 mg/kg
Protocol: The mouse hot plate test is an assay which only detects centrally-mediated analgesic effects. This test was carried out using the protocol described in G. Woolfe and A. MacDonald, J. Pharmacol. Exp. Ther., 80, p. 300 ([…]).
Since most of the peptides of the invention were not potent centrally, it was impossible to determine an ED50 value. […] A result is considered insignificant if 30% of mice or lower have responded.

T2 sequence (P33535 whole entry): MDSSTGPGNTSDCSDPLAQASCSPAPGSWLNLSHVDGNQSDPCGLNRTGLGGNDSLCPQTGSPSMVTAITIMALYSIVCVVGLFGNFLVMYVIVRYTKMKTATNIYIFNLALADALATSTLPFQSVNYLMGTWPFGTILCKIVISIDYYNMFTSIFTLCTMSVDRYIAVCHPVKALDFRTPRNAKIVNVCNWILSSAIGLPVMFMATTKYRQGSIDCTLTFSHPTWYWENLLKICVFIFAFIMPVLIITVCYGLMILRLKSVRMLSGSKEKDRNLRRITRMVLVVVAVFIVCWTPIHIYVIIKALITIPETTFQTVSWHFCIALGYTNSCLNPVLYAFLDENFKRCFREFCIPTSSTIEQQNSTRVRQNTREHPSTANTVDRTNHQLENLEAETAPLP
T1 sequence (P33533 whole entry): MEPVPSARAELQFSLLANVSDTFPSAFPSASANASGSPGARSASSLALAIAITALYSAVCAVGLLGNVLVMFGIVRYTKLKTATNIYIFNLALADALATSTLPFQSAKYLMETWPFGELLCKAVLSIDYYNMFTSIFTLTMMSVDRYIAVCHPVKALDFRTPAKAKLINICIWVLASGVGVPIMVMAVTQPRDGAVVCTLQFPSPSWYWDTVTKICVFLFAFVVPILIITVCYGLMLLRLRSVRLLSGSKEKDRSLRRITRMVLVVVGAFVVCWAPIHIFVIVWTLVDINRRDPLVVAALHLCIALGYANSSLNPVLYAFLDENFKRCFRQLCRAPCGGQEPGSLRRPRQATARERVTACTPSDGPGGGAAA

Row | Structure (SMILES) | Ki (δ-opioid receptor) [nM] | Ki (μ-opioid receptor) [nM] | Ki^δ /Ki^μ (μ-opioid receptor) | PBQ (20 min.) ED50 (PBQ-induced writhing) [mg/kg] | % of animals showing a 50% increase (hot plate stimulus; time 60 min.) [%] | % of animals showing a 50% increase (hot plate stimulus; time 120 min.) [%] | Kd (δ-opioid receptor; read-out: Dissociation constant of radioligand) [nM]
1 | NCC[C@H](NC(=O)[C@H](Cc1ccccc1)NC(=O)[C@@H](Cc1ccccc1)NC(=O)[C@@H](N)Cc1ccc(O)cc1)C(N)=O [BCH-2466, H-Tyr-D-Phe-Phe-A2 bu-NH2] (H-Y[dF]F[Dab]-NH2) | 1420 | 2.81 | 507.59 | 0.2 | 80 |  | 
2 | CC(C)[C@@H](NC(=O)[C@@H](N)Cc1ccc(O)cc1)C(=O)N[C@@H](Cc1ccccc1)C(=O)N[C@@H](CCN)C(N)=O [BCH-2467, H-Tyr-D-Val-Phe-A2 bu-NH2] (H-Y[dV]F[Dab]-NH2) | 6280 | 2.64 | 1113.55 | 2 | 90 |  | 
3 | CC[C@@H](C)[C@@H](NC(=O)[C@@H](N)Cc1ccc(O)cc1)C(=O)N[C@@H](Cc1ccccc1)C(=O)N[C@@H](CCN)C(N)=O [BCH-2468, H-Tyr-D-Ile-Phe-A2 bu-NH2] (H-Y[dI]F[Dab]-NH2) | 2530 | 9.7 | 260.61 | 3 to 10 |  |  | 
4 | NCC[C@H](NC(=O)[C@H](Cc1ccccc1)NC(=O)[C@@H](CO)NC(=O)[C@@H](N)Cc1ccc(O)cc1)C(N)=O [BCH-2469, H-Tyr-D-Ser-Phe-A2 bu-NH2] (H-Y[dS]F[Dab]-NH2) | 5480 | 5.11 | 1071.20 | 1.5 | 90 |  | 
5 | C[C@@H](NC(=O)[C@@H](N)Cc1ccc(O)cc1)C(=O)N[C@@H](Cc1ccccc1)C(=O)N[C@@H](CCN)C(N)=O [BCH-2470, H-Tyr-D-Ala-Phe-A2 bu-NH2] (H-Y[dA]F[Dab]-NH2) | 3730 | 5.91 | 630.58 | 0.3 |  | 90 | 
6 | CCC[C@@H](NC(=O)[C@@H](N)Cc1ccc(O)cc1)C(=O)N[C@@H](Cc1ccccc1)C(=O)N[C@@H](CCN)C(N)=O [BCH-2471, H-Tyr-D-Nva-Phe-A2 bu-NH2] (H-Y[dNva]F[Dab]-NH2) | 441 | 0.56 | 790.51 | 0.2 | 100 |  | 
7 | CCCC[C@@H](NC(=O)[C@@H](N)Cc1ccc(O)cc1)C(=O)N[C@@H](Cc1ccccc1)C(=O)N[C@@H](CCN)C(N)=O [BCH-2472, H-Tyr-D-Nle-Phe-A2 bu-NH2] (H-Y[dNle]F[Dab]-NH2) | 2130 | 10.2 | 207.88 | 0.8 | 60 |  | 
8 | CC(C)C[C@@H](NC(=O)[C@@H](N)Cc1ccc(O)cc1)C(=O)N[C@@H](Cc1ccccc1)C(=O)N[C@@H](CCN)C(N)=O [BCH-2474, H-Tyr-D-Leu-Phe-A2 bu-NH2] (H-Y[dL]F[Dab]-NH2) | 13100 | 69.8 | 186.98 | > 10 |  |  | 
9 | NCCC[C@H](NC(=O)[C@H](Cc1ccccc1)NC(=O)[C@@H](CCN)NC(=O)[C@@H](N)Cc1ccc(O)cc1)C(N)=O [BCH-2580, H-Tyr-D-A2 bu-Phe-Orn-NH2] (H-Y[dDab]F[Orn]-NH2) |  |  | 411.98 | 1.2 | 80 |  | 
10 | N=C(N)NCCC[C@@H](NC(=O)[C@@H](N)Cc1ccc(O)cc1)C(=O)N[C@@H](Cc1ccccc1)C(=O)N[C@@H](Cc1ccccc1)C(N)=O [BCH-2687, H-Tyr-D-Arg-Phe-Phe-NH2] (H-Y[dR]FF-NH2) |  |  |  |  | 70 |  | 
11 | N=C(N)NCCC[C@@H](NC(=O)[C@@H](N)Cc1ccc(O)cc1)C(=O)N[C@@H](Cc1ccccc1)C(=O)N[C@@H](CO)C(N)=O [BCH-2688, H-Tyr-D-Arg-Phe-Ser-NH2] (H-Y[dR]FS-NH2) |  |  |  |  | 100 |  | 
12 | CC(C)C[C@H](NC(=O)[C@H](Cc1ccccc1)NC(=O)CNC(=O)[C@@H](CO)NC(=O)[C@@H](N)Cc1ccc(O)cc1)C(=O)N[C@H](C(=O)O)[C@@H](C)O [[^3 H]DSLET, reference compound] |  |  |  |  |  |  | 2.6
